Reference: paper PMC11374673, “Discovery of isoquinoline sulfonamides as allosteric gyrase inhibitors with activity against fluoroquinolone-resistant bacteria” (Nature Chemistry, 2024)
Converted amounts (≈) assume the structure as drawn. “And” between values parts separate entries of the source, which are not always exact repeats. Identical values can stand only once. “Also recorded” adds a separate entry of the source.

Tests used:
K. pneumoniae ATCC 29665 = assay: MIC by broth microdilution; format: cell-based, Klebsiella pneumoniae; conditions: Klebsiella pneumoniae, ATCC29665, broth microdilution; read-out: MIC K. pneumoniae ATCC 29665
Method in brief: (§1)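 Exponential-phase cultures (OD600 0.5, 37 °C aerobic), diluted 100-fold in CAMHB, were added to twofold compound dilution series. Keio strains grown with 50 µg ml^−1 kanamycin. Plates incubated overnight at 37 °C, shaking at 600 r.p.m.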

HEK293T = assay: Cytotoxicity assay (MTT); format: cell-based, human; conditions: for MTT data (raw readout): HEK293T; for IC50: Homo sapiens, HEK-293T, 24 h, MTT
Procedure: (§2) HepG2 (ATCC HB-8065) and HEK293T (ATCC CRL-3216) cell lines were cultured at 37 °C and 7% CO2 in Dulbecco’s modified Eagle medium (Sigma-Aldrich, D6546) with GlutaMax, penicillin (100 µg ml^−1), streptomycin (100 µg ml^−1) and 10% fetal calf serum. Cells were passaged twice a week by first detaching using 0.05% trypsin in phosphate-buffered saline (PBS) and then diluting to appropriate confluence. Compound cytotoxicity was evaluated using the standard (3-(4,5-dimethylthiazol-2-yl)-2,5-diphenyltetrazolium bromide (MTT) assay protocol (MTT assay protocol for cell viability and proliferation, Merck) with slight changes. HepG2 and HEK293T cells were seeded at a density of 1.5 × 10^4 cells per well in a clear 96-well tissue culture treated plate in a final volume of 100 µl in Dulbecco’s modified Eagle medium, supplemented with fetal bovine serum (1%), GlutaMax and penicillin/streptomycin. Cells were incubated for 24 h at 37 °C, 7% CO2 to allow cells to attach to the plates. […] Incubation was done for 24 h at 37 °C, 7% CO2. After the incubation, MTT was added to each well at a final concentration of 0.40 mg ml^−1. The plates were then incubated for 2 h at 37 °C, 7% CO2. Medium was carefully removed via suction, and purple formazan crystals were resuspended in 100 µl DMSO. Absorbance was read at 570 nm using a Clariostar plate reader with MARS (V4.20). The data were then analysed with GraphPad Prism software. IC50 values were calculated using non-linear fitted curve with variable slope settings, with values adjusted for background (plotted absorbance (ABS)sample = (ABSsample – ABSbackground) / (ABSvehicle – ABSbackground)). Technical triplicates for each condition were used, along with biological duplicates.

HepG2 = assay: Cytotoxicity assay (MTT); format: cell-based, human; conditions: for IC50: MTT, 24 h
Procedure: as §2

E. coli W3110 = assay: MIC by broth microdilution; format: cell-based, Escherichia coli; conditions: for MIC: Escherichia coli, W3110, WT, broth microdilution, read-out: MIC E. coli W3110; for antimicrobial activity: relative to parent compound
Method in brief: as §1

[1] = 0.023 uM, experiment n = 1, technical triplicates
[2] = 0.023 uM, experiment n = 2, technical triplicates
[3] = 0.068 uM, experiment n = 1, technical triplicates
[4] = 0.068 uM, experiment n = 2, technical triplicates
[5] = 0.21 uM, experiment n = 1, technical triplicates
[6] = 0.21 uM, experiment n = 2, technical triplicates
[7] = 0.62 uM, experiment n = 1, technical triplicates
[8] = 0.62 uM, experiment n = 2, technical triplicates
[9] = 1.85 uM, experiment n = 1, technical triplicates
[10] = 1.85 uM, experiment n = 2, technical triplicates
[11] = HepG2, 0.023 uM, experiment n = 2, technical triplicates
[12] = HepG2, 0.068 uM, experiment n = 1, technical triplicates
[13] = HepG2, 0.068 uM, experiment n = 2, technical triplicates
[14] = HepG2, 0.21 uM, experiment n = 1, technical triplicates
[15] = HepG2, 0.21 uM, experiment n = 2, technical triplicates
[16] = HepG2, 0.62 uM, experiment n = 1, technical triplicates
[17] = HepG2, 0.62 uM, experiment n = 2, technical triplicates
[18] = HepG2, 1.85 uM, experiment n = 1, technical triplicates
[19] = HepG2, 1.85 uM, experiment n = 2, technical triplicates

Compound	MIC (K. pneumoniae ATCC 29665)	MTT data (raw readout) (HEK293T; [1])	MTT data (raw readout) (HEK293T; [2])	MTT data (raw readout) (HEK293T; [3])	MTT data (raw readout) (HEK293T; [4])	MTT data (raw readout) (HEK293T; [5])	MTT data (raw readout) (HEK293T; [6])	MTT data (raw readout) (HEK293T; [7])	MTT data (raw readout) (HEK293T; [8])	MTT data (raw readout) (HEK293T; [9])	MTT data (raw readout) (HEK293T; [10])	IC50 (HEK293T)	MTT data (raw readout) (HepG2; [11])	MTT data (raw readout) (HepG2; [12])	MTT data (raw readout) (HepG2; [13])	MTT data (raw readout) (HepG2; [14])	MTT data (raw readout) (HepG2; [15])	MTT data (raw readout) (HepG2; [16])	MTT data (raw readout) (HepG2; [17])	MTT data (raw readout) (HepG2; [18])	also measured
O=S(=O)(NC[C@@H]1CC[C@H](c2ccc(-c3ccc(F)nc3)cc2)N1)c1cccc2cnccc12 [Compound 96]	12.5 µM (≈ 5.78 µg/mL)	1.310 and 1.426 and 1.382	1.005 and 1.055 and 0.974	1.261 and 1.196 and 1.228	1.060 and 1.105 and 1.114	1.460 and 1.332 and 1.292	0.944 and 1.021 and 1.022	1.285 and 1.264 and 1.255	0.998 and 0.945 and 0.948	1.253 and 1.307 and 1.121	0.889 and 0.884 and 0.825	22 µM	0.335 and 0.356 and 0.336	0.697 and 0.415 and 0.444	0.314 and 0.274 and 0.280	0.410 and 0.391 and 0.401	0.286 and 0.328 and 0.321	0.318 and 0.339 and 0.325	0.277 and 0.335 and 0.337	0.449 and 0.459 and 0.475	MTT data (raw readout) (HEK293T; 5.6 uM, experiment n = 1, technical triplicates): 0.992 and 0.906 and 1.276; MTT data (raw readout) (HEK293T; 5.6 uM, experiment n = 2, technical triplicates): 0.770 and 0.750 and 0.744; MTT data (raw readout) (HEK293T; 16.7 uM, experiment n = 1, technical triplicates): 0.263 and 0.250 and 0.238; MTT data (raw readout) (HEK293T; 16.7 uM, experiment n = 2, technical triplicates): 0.552 and 0.449 and 0.479; MTT data (raw readout) (HEK293T; 50 uM, experiment n = 1, technical triplicates): 0.081 and 0.067 and 0.062; MTT data (raw readout) (HEK293T; 50 uM, experiment n = 2, technical triplicates): 0.360 and 0.319 and 0.325; MTT data (raw readout) (HepG2; [19]): 0.324 and 0.290 and 0.321; MTT data (raw readout) (HepG2; HepG2, 5.6 uM, experiment n = 1, technical triplicates): 0.376 and 0.380 and 0.428; MTT data (raw readout) (HepG2; HepG2, 5.6 uM, experiment n = 2, technical triplicates): 0.305 and 0.314 and 0.321; MTT data (raw readout) (HepG2; HepG2, 16.7 uM, experiment n = 1, technical triplicates): 0.356 and 0.341 and 0.324; MTT data (raw readout) (HepG2; HepG2, 16.7 uM, experiment n = 2, technical triplicates): 0.281 and 0.283 and 0.288; MTT data (raw readout) (HepG2; HepG2, 50 uM, experiment n = 1, technical triplicates): 0.302 and 0.347 and 0.370; MTT data (raw readout) (HepG2; HepG2, 50 uM, experiment n = 2, technical triplicates): 0.208 and 0.219 and 0.229; IC50 (HepG2; Homo sapiens, HepG2, 24 h): > 100 µM; IC50 (HepG2): > 50 µM; MIC (E. coli W3110): 3.1 µM (≈ 1.43 µg/mL); antimicrobial activity (E. coli W3110): twofold increase in potency; also recorded: active
O=S(=O)(NC[C@H]1CC[C@H](c2ccc(-c3ccc(F)nc3)cc2)N1)c1cccc2cnccc12 [Compound 97]	25 µM (≈ 11.6 µg/mL)	1.365 and 1.275 and 1.431	0.941 and 0.907 and 1.040	1.367 and 1.278 and 1.395	0.968 and 0.952 and 1.040	1.452 and 1.196 and 1.181	0.930 and 0.987 and 0.817	1.160 and 1.204 and 1.255	0.874 and 0.902 and 0.863	1.307 and 1.173 and 1.284	0.763 and 0.774 and 0.841	39 µM	0.270 and 0.220 and 0.207	0.289 and 0.307 and 0.326	0.263 and 0.259 and 0.236	0.296 and 0.298 and 0.289	0.257 and 0.247 and 0.226	0.322 and 0.321 and 0.315	0.242 and 0.234	0.327 and 0.348 and 0.347	MTT data (raw readout) (HepG2; HepG2, 0.023 uM, experiment n = 1, technical triplicates): 0.311 and 0.313 and 0.321; MTT data (raw readout) (HepG2; [19]): 0.240 and 0.213; IC50 (HepG2; Homo sapiens, HepG2, 24 h): > 100 µM; IC50 (HepG2): > 50 µM; MIC (E. coli W3110): 12.5 µM (≈ 5.78 µg/mL); antimicrobial activity (E. coli W3110): fourfold less active; also recorded: reduced activity
